Assay results published in PMC6753678, “Fueling Open Innovation for Malaria Transmission-Blocking Drugs: Hundreds of Molecules Targeting Early Parasite Mosquito Stages” (Frontiers in Microbiology, 2019).
Like-named read-outs stand apart in the source and are kept apart here.

Legend:
[1] = system: P. falciparum late stage (stages IV-V) gametocytes; set-up: method as in Almela et al 2016; settings: ref Almela et al 2016, read-out: Pf GCT ATP IC50, cited from earlier work
[2] = system: P. falciparum late stage (stages IV-V) gametocytes; assay: P. falciparum late stage gametocyte ATP depletion assay (Pf GC-ATP); settings: 1: YES; 0: NO; >10-fold selectivity over cytotoxicity
[3] = system: HepG2 cells; assay: HepG2 cytotoxicity assay; settings: for IC50: read-out: HepG2 cytotoxicity assay IC50, dose response confirmation
How it was run: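 Here viability after a 48 h compound incubation (37°C, humidified 5% CO2) is measured by fluorescence and expressed as percent inhibition, with doxorubicin at 50 μM and DMSO as the bounding controls.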

[4] = system: HepG2 cells; settings: cited from earlier work; for HepG2 cytoxicity / HepG2 cytoxicity (Pf GCT ATP screen): ref Almela et al 2016; for HepG2 cytoxicity (Pf FGAA screen): ref Miguel-Blanco et al 2017
[5] = system: P. falciparum female gametocytes; set-up: method as in Miguel-Blanco et al 2017; settings: ref Miguel-Blanco et al 2017, read-out: Pf FGAA IC50, cited from earlier work
[6] = system: P. falciparum female gametocytes; assay: P. falciparum female gametogenesis assay (Pf FGAA); settings: 1: YES; 0: NO
[7] = system: P. berghei ookinete development; settings: for Is compound selective in assay? Pb ODA active?: 1: YES, 0: NO; for % inhibition, Replicate A / % inhibition, Replicate B: primary screen at 1 μM
[8] = system: 3D7-strain P. falciparum asexual parasites; assay: P. falciparum asexual growth inhibition assay (Pf GIA); format: cell-based, Plasmodium falciparum; settings: dose response confirmation; read-out: Pf asexual growth inhibition assays IC50
How it was run: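 Steps: seed parasites (0.25% parasitemia, 2% hematocrit) onto compound dilutions; incubate 72 h at 37°C, 5% O2/5% CO2; freeze at −70°C and thaw; add LDH reaction mix, read A650 after 10 min. Percent growth inhibition derived from chloroquine and DMSO controls, averaged over three biological replicates.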

[9] = P. falciparum late stage gametocyte ATP assay, TCAMS screen
[10] = HepG2 cytotoxicity unified across screens, >25 set to 25.00
[11] = reported with the Pf GCT ATP screen
[12] = P. falciparum late stage gametocyte ATP assay
[13] = HepG2 data listed with Pf GCT ATP screen
[14] = read-out: Pb ODA IC50, this manuscript
[15] = read-out: Pb Ookinete development assay IC50, dose response confirmation
[16] = HepG2 values of the three screens unified

Row | Compound | IC50 [5] | Is compound selective in assay? Pf FGAA active? [6] | Is compound selective in assay? Pb ODA active? [7] | % inhibition, Replicate A [7] | % inhibition, Replicate B [7] | IC50 [7, 14] | IC50 [7, 15] | HepG2 cytoxicity (Pb ODA, this manuscript) [3] | Unified cytotox [3, 16] | IC50 [3] | IC50 [8] | HepG2 cytoxicity (Pf FGAA screen) ([4]; HepG2) | further results
1 | Cl.O=C(/C=C/c1ccc(Cl)c(Cl)c1)N1CCC(CCN2CCC(c3c[nH]c4cnccc34)CC2)CC1 [TCMDC-140136] | – | – | – | – | – | – | – | – | – | – | – | – | IC50 [1, 9]: 200 nM; Is compound selective in assay? Pf GC-ATP active? [2]: 1 (1: YES); Unified cytotox [3, 10]: 7.21 µM
2 | O=C(CC1CCCC1)N(Cc1ccc(-c2ccc(CNC3Cc4ccccc4C3)cc2)cc1)CC1CCCCN1.O=C(O)C(F)(F)F (centres unmarked) [TCMDC-141446] | – | – | – | – | – | – | – | – | – | – | – | – | IC50 [1, 9]: 1000 nM; Is compound selective in assay? Pf GC-ATP active? [2]: 0 (0: NO); Unified cytotox [3, 10]: 6.47 µM
3 | Nc1ncc(-c2ccc3nccc(-c4ccncc4)c3c2)cc1S(=O)(=O)N1CCOCC1 [TCMDC-134180] | – | – | – | – | – | – | – | – | – | – | – | – | IC50 [1, 9]: 6900 nM; Unified cytotox [3, 10]: 25.00 µM; HepG2 cytoxicity [4, 11]: >25 µM
4 | O=C(Nc1ccc2c(c1)CCCN2S(=O)(=O)c1cccs1)c1cc([N+](=O)[O-])ccc1Cl [TCMDC-125153] | – | – | – | – | – | – | – | – | – | – | – | – | IC50 [1, 12]: 2660 nM; HepG2 cytoxicity [4, 13]: >25 µM
5 | Cc1ccnc(NC(c2cccc(Cl)c2Cl)c2ccc3cccnc3c2O)c1 (centres unmarked) [TCMDC-123997] | 1910 nM | 1 (1: YES) | 0 (0: NO) | 48.46% | 53.18% | 3500 nM | 3500 nM | 2.88 µM | 24.29 µM | 2880 nM | 1990 nM | 45.69 µM | –
6 | O=C(Nc1nc(-c2ccccn2)cs1)c1ccc(S(=O)(=O)N2CCc3ccccc32)cc1 [TCMDC-125432] | 1070 nM | 1 (1: YES) | 0 (0: NO) | 17.85% | 54.79% | 2400 nM | 2400 nM | 4.22 µM | 16.72 µM | 4220 nM | 3850 nM | 29.22 µM | –
7 | Cc1cccc(-c2nc(Nc3ccncc3)c3cc(N(C)C)ccc3n2)n1 [TCMDC-135308] | – | – | – | – | – | – | – | – | – | – | – | – | IC50 [1, 9]: 2660 nM; Unified cytotox [3, 10]: 25.00 µM; HepG2 cytoxicity [4, 11]: >25 µM
8 | Br.Cc1ccnc(Nc2nc(-c3ccccn3)cs2)c1 [TCMDC-125769] | – | – | – | – | – | – | – | – | – | – | – | – | IC50 [1, 12]: 43.3 nM
9 | COc1ccc2nc(-c3cccc(C)n3)nc(Nc3ccncc3)c2c1 [TCMDC-134670] | – | – | – | – | – | – | – | – | – | – | – | – | IC50 [1, 9]: 2510 nM; Unified cytotox [3, 10]: 25.00 µM; HepG2 cytoxicity [4, 11]: >25 µM
10 | Cc1cc(F)ccc1-c1nc(NCCCNCCc2ccccc2)nc2c1ccc(=O)n2-c1c(F)cccc1F.O=C(O)C(F)(F)F [TCMDC-141804] | 3610 nM | 0 (0: NO) | 1 (1: YES) | 63.85% | 85.47% | 720 nM | 725 nM | 11.48 µM | 12.04 µM | 11500 nM | 21 nM | 12.59 µM | –
11 | Cc1cc(NCCCCCCNc2cc(C)nc3c(C)cccc23)c2cccc(C)c2n1.Cl [TCMDC-125702] | – | – | – | – | – | – | – | – | – | – | – | – | IC50 [1, 12]: 3320 nM; HepG2 cytoxicity [4, 13]: >25 µM
12 | COc1ccc2nc3cc(Cl)ccc3c(N)c2c1.Cl [TCMDC-125835] | 670 nM | 0 (0: NO) | 0 (0: NO) | 74.62% | 77.49% | 6320 nM | 6320 nM | 6.17 µM | 3.87 µM | 6170 nM | 29 nM | 1.57 µM | –
13 | Cc1cc(Nc2ncc(C#N)c(Nc3ccccc3C(N)=O)n2)ccc1N1CCN(C)CC1.Cl [TCMDC-134115] | 1670 nM | 0 (0: NO) | 1 (1: YES) | 100.09% | 101.70% | 21.4 nM | 21 nM | 3.98 µM | 2.19 µM | 3980 nM | 7 nM | 0.40 µM | –
14 | CC(C)(CN)c1cc(-c2ccc(Cl)c(O)c2)c(-c2ccncc2)o1.Cl [TCMDC-141334] | 420 nM | 1 (1: YES) | 1 (1: YES) | 59.21% | 49.94% | 1390 nM | 1390 nM | 20.65 µM | 15.32 µM | 20600 nM | 1620 nM | 9.98 µM | –
15 | CCC1=C(C[C@H]2NCCc3cc(OC)c(OC)cc32)C[C@H]2c3cc(OC)c(OC)cc3CCN2C1.Cl [TCMDC-131825] | – | – | – | 90.26% | 99.18% | 370 nM | 367 nM | – | – | – | 127 nM | – | IC50 [1]: 300 nM; HepG2 cytoxicity (Pf GCT ATP screen) ([4]; HepG2): >25 µM
16 | CCCC(N)C(=O)NC1CCN(c2c(F)c(N)c3c(=O)c(C(=O)O)cn4c3c2Oc2ccccc2-4)C1.Cl (centres unmarked) [TCMDC-125701] | 1140 nM | 0 (0: NO) | 0 (0: NO) | 70.26% | 78.60% | – | 900 nM | 3.63 µM | 2.62 µM | 3630 nM | 56 nM | 1.61 µM | –
17 | Cc1ccc(Nc2nc(-c3ccccn3)cs2)nc1 [TCMDC-125854] | – | – | – | – | – | – | – | – | – | – | – | – | IC50 ([5]; TCAMS screen comparison): 27.3 nM; IC50 ([1]; TCAMS screen comparison): 160 nM; Unified cytotox ([3]; HepG2 cytotoxicity unified across the three screens): 33.07 µM
18 | Cc1ccc(-n2c(Sc3ncnc4sccc34)nnc2N2CCCC2)cc1 [TCMDC-125247] | 490 nM | 1 (1: YES) | 1 (1: YES) | 123.83% | 128.92% | 220 nM | 222 nM | 74.13 µM | 81.63 µM | 74100 nM | 275 nM | 89.13 µM | –
19 | c1ccc(CSC2=NNC(c3ccccn3)S2)cc1 (centres unmarked) [TCMDC-123769] | – | – | – | – | – | – | – | – | – | – | – | – | IC50 ([1]; TCAMS library screen): 7980 nM; HepG2 cytoxicity (Pf GCT ATP screen) ([4]; HepG2 value reported with Pf GCT ATP screen): >25 µM
20 | Clc1ccc(Nc2nc(-c3ccccn3)cs2)nc1 [TCMDC-123885] | – | – | – | -3.14% | 71.58% | 3700 nM | 3700 nM | – | – | – | 1600 nM | – | IC50 [1]: 670 nM; HepG2 cytoxicity (Pf GCT ATP screen) ([4]; HepG2): 20.8 µM
21 | Nc1nc(N)c2c(ccc3c2ccn3Cc2cccc(F)c2)n1 [TCMDC-137810] | 1420 nM | 0 (0: NO) | 0 (0: NO) | 49.99% | 58.69% | 360 nM | 359 nM | 0.17 µM | 0.11 µM | 170 nM | < 0.2 nM | 0.06 µM | –
22 | COc1ccc(-c2cc(-c3ccc(S(C)(=O)=O)cc3)cnc2N)cn1 [TCMDC-133351] | – | – | – | – | – | – | – | – | – | – | – | – | IC50 [1, 9]: 1180 nM
23 | CCN(CC)/C(=N/C(=N)Nc1ccc(Cl)c(Cl)c1)NCCCCCCN/C(=N\C(=N)Nc1ccc(Cl)c(Cl)c1)N(CC)CC [TCMDC-131808] | – | – | – | – | – | – | – | – | – | – | – | – | IC50 [1, 12]: 3440 nM; HepG2 cytoxicity [4, 13]: >25 µM
